Legend:
Assay in all cases: relative viability (nuclei count vs DMSO), 5 days (fraction); higher = more cells survive
Everolimus = compound: CO[C@H]1C[C@@H]2CC[C@@H](C)[C@@](O)(O2)C(=O)C(=O)N2CCCC[C@H]2C(=O)O[C@H]([C@H](C)C[C@@H]2CC[C@@H](OCCO)[C@H](OC)C2)CC(=O)[C@H](C)/C=C(\C)[C@@H](O)[C@@H](OC)C(=O)[C@H](C)C[C@H](C)/C=C/C=C/C=C/1C [Everolimus]
Outline: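 Hoechst staining, done together with fixation and permeabilisation, marked nuclei for 4× imaging and MetaXpress counting. This followed 5 days without medium change after lung cancer cell lines, kept overnight at 37 °C in 1536-well plates, were pinned with five library-drug doses (not always all listed) spaced by √10 on vehicle-anchored plates. Viability is the ratio of treated-well to vehicle-well nuclei, expressed as a median across plates. Plates passed only at control CV below 25% with at least one doubling.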

Everolimus + Tozasertib = compound: CO[C@H]1C[C@@H]2CC[C@@H](C)[C@@](O)(O2)C(=O)C(=O)N2CCCC[C@H]2C(=O)O[C@H]([C@H](C)C[C@@H]2CC[C@@H](OCCO)[C@H](OC)C2)CC(=O)[C@H](C)/C=C(\C)[C@@H](O)[C@@H](OC)C(=O)[C@H](C)C[C@H](C)/C=C/C=C/C=C/1C [Everolimus] + Cc1cc(Nc2cc(N3CCN(C)CC3)nc(Sc3ccc(NC(=O)C4CC4)cc3)n2)n[nH]1 [Tozasertib] (partner 0.1 µM)
Outline: (§1)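 Relative viability divides the nuclei count in treated wells by that in vehicle wells. Lung cancer cell lines were seeded in 1536-well plates, dosed by pin tool the next day, and fixed and stained after 5 days in one step with final 0.05% Triton X-100, 1% formaldehyde and 1 ug/ml Hoechst. Dosing was a single drug or a fixed anchor-drug dose plus five library-drug doses (not always all listed) in √10 steps, and values are medians of duplicate plates imaged at 4×.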

Everolimus + Foretinib = compound: CO[C@H]1C[C@@H]2CC[C@@H](C)[C@@](O)(O2)C(=O)C(=O)N2CCCC[C@H]2C(=O)O[C@H]([C@H](C)C[C@@H]2CC[C@@H](OCCO)[C@H](OC)C2)CC(=O)[C@H](C)/C=C(\C)[C@@H](O)[C@@H](OC)C(=O)[C@H](C)C[C@H](C)/C=C/C=C/C=C/1C [Everolimus] + COc1cc2c(Oc3ccc(NC(=O)C4(C(=O)Nc5ccc(F)cc5)CC4)cc3F)ccnc2cc1OCCCN1CCOCC1 [Foretinib] (partner 0.25 µM)
Outline: as §1

Everolimus + Dasatinib = compound: CO[C@H]1C[C@@H]2CC[C@@H](C)[C@@](O)(O2)C(=O)C(=O)N2CCCC[C@H]2C(=O)O[C@H]([C@H](C)C[C@@H]2CC[C@@H](OCCO)[C@H](OC)C2)CC(=O)[C@H](C)/C=C(\C)[C@@H](O)[C@@H](OC)C(=O)[C@H](C)C[C@H](C)/C=C/C=C/C=C/1C [Everolimus] + Cc1nc(Nc2ncc(C(=O)Nc3c(C)cccc3Cl)s2)cc(N2CCN(CCO)CC2)n1 [Dasatinib] (partner 0.075 µM)
Outline: as §1

Everolimus + Luminespib = compound: CO[C@H]1C[C@@H]2CC[C@@H](C)[C@@](O)(O2)C(=O)C(=O)N2CCCC[C@H]2C(=O)O[C@H]([C@H](C)C[C@@H]2CC[C@@H](OCCO)[C@H](OC)C2)CC(=O)[C@H](C)/C=C(\C)[C@@H](O)[C@@H](OC)C(=O)[C@H](C)C[C@H](C)/C=C/C=C/C=C/1C [Everolimus] + CCNC(=O)c1noc(-c2cc(C(C)C)c(O)cc2O)c1-c1ccc(CN2CCOCC2)cc1 [Luminespib] (partner 0.01 µM)
Outline: as §1

Everolimus + OSI-027 = compound: CO[C@H]1C[C@@H]2CC[C@@H](C)[C@@](O)(O2)C(=O)C(=O)N2CCCC[C@H]2C(=O)O[C@H]([C@H](C)C[C@@H]2CC[C@@H](OCCO)[C@H](OC)C2)CC(=O)[C@H](C)/C=C(\C)[C@@H](O)[C@@H](OC)C(=O)[C@H](C)C[C@H](C)/C=C/C=C/C=C/1C [Everolimus] + COc1cccc2cc(-c3nc([C@H]4CC[C@H](C(=O)O)CC4)n4ncnc(N)c34)[nH]c12 [OSI-027] (partner 0.5 µM)
Outline: as §1

Everolimus + Phenformin = compound: CO[C@H]1C[C@@H]2CC[C@@H](C)[C@@](O)(O2)C(=O)C(=O)N2CCCC[C@H]2C(=O)O[C@H]([C@H](C)C[C@@H]2CC[C@@H](OCCO)[C@H](OC)C2)CC(=O)[C@H](C)/C=C(\C)[C@@H](O)[C@@H](OC)C(=O)[C@H](C)C[C@H](C)/C=C/C=C/C=C/1C [Everolimus] + N=C(N)NC(=N)NCCc1ccccc1 [Phenformin] (partner 250 µM)
Outline: as §1

## NCI-H1623
Everolimus; 0.01 µM
  relative viability: 0.773
Everolimus; 0.03162 µM
  relative viability: 0.622
Everolimus; 0.1 µM
  relative viability: 0.595
Everolimus; 0.3162 µM
  relative viability: 0.581
Everolimus; 1 µM
  relative viability: 0.514
Everolimus + Tozasertib; first compound 0.01 µM
  relative viability: 0.411
Everolimus + Tozasertib; first compound 0.03162 µM
  relative viability: 0.396
Everolimus + Tozasertib; first compound 0.1 µM
  relative viability: 0.39
Everolimus + Tozasertib; first compound 0.3162 µM
  relative viability: 0.381
Everolimus + Tozasertib; first compound 1 µM
  relative viability: 0.385
Everolimus + Foretinib; first compound 0.01 µM
  relative viability: 0.721
Everolimus + Foretinib; first compound 0.03162 µM
  relative viability: 0.831
Everolimus + Foretinib; first compound 0.1 µM
  relative viability: 0.53
Everolimus + Foretinib; first compound 0.3162 µM
  relative viability: 0.511
Everolimus + Foretinib; first compound 1 µM
  relative viability: 0.563
Everolimus + Dasatinib; first compound 0.01 µM
  relative viability: 0.388
Everolimus + Dasatinib; first compound 0.03162 µM
  relative viability: 0.566
Everolimus + Dasatinib; first compound 0.1 µM
  relative viability: 0.317
Everolimus + Dasatinib; first compound 0.3162 µM
  relative viability: 0.352
Everolimus + Dasatinib; first compound 1 µM
  relative viability: 0.382
Everolimus + Luminespib; first compound 0.01 µM
  relative viability: 0.467
Everolimus + Luminespib; first compound 0.03162 µM
  relative viability: 0.336
Everolimus + Luminespib; first compound 0.1 µM
  relative viability: 0.307
Everolimus + Luminespib; first compound 0.3162 µM
  relative viability: 0.326
Everolimus + Luminespib; first compound 1 µM
  relative viability: 0.296
Everolimus + OSI-027; first compound 0.01 µM
  relative viability: 0.408
Everolimus + OSI-027; first compound 0.03162 µM
  relative viability: 0.395
Everolimus + OSI-027; first compound 0.1 µM
  relative viability: 0.362
Everolimus + OSI-027; first compound 0.3162 µM
  relative viability: 0.384
Everolimus + OSI-027; first compound 1 µM
  relative viability: 0.372
Everolimus + Phenformin; first compound 0.01 µM
  relative viability: 0.466
Everolimus + Phenformin; first compound 0.03162 µM
  relative viability: 0.622
Everolimus + Phenformin; first compound 0.1 µM
  relative viability: 0.444
Everolimus + Phenformin; first compound 0.3162 µM
  relative viability: 0.444
Everolimus + Phenformin; first compound 1 µM
  relative viability: 0.512

Reference: the supplement of paper PMC10307832
